# Measurements as given in patent US20240261236A1, “METHODS OF USING NMDA RECEPTOR ANTAGONISTS” (Seelos Therapeutics, Inc., priority 2021, published 2024).
# What was measured:
# [1] = system: adults with major depressive disorder (MDD) who are at imminent risk of suicide; test: S-STS CMCM total score, Phase 2 Part 1; assay type: in vivo, human; conditions: for S-STS CMCM score: 90 mg IN+SOC, 24 hours post-administration; for S-STS mean score: baseline 21.9
# From the text: (§1) The S-STS CMCM (version 01/01/19) is a clinician-rated outcome measure which assesses SI/B on a standard 22-item scale, as well as multiple patient and clinician-rated items. The first 16 items are rated on a Likert-type scale ranging from “not at all” (0 units) to “extremely” (4 units), where select scoring (i.e., 4 specific items are scored based on the highest score on 2 of those items) yields a total score ranging from 0 units to 52 units. The final 6 items are used only when the patient misses a visit and is unable to complete the scale; if that missed visit is due to attempted or completed suicide, the possible maximum score is 100. The CMCM also yields 5 different single-item global assessments: 1) subject-rated likelihood of a suicide attempt; 2) subject-rated treatment needed; 3) clinician global severity of suicidal impulses, thoughts, and behaviors; 4) clinician judgment of suicide risk at this time and level of management needed for suicidality; and 5) clinician judgment of subject's likelihood of making a suicide attempt or of dying by suicide in the next 7 days.
# (§2) The secondary endpoints are the change from baseline at 24 hours, as well as at Day 16, in the following: • (1) S-STS total score • (2) MADRS Total at Day 16 (only) • (3) Clinical Global Impression (CGI) of Severity for SI/B (CGIS-SI/B) and Change in SI/B (CGIC-SI/B) • (4) Patient Global Impression (PGI) of Severity for SI/B (PGIS-SI/B) and Change in SI/B (PGIC-SI/B • (5) S-STS Clinician-Rated Global Severity of Suicidal Impulses, Thoughts, and Behaviors • (6) S-STS Clinician judgment of subject's risk of a suicide attempt or death by suicide at this time • (7) S-STS Clinician judgment of subject's likelihood (risk) of making a suicide attempt or of dying by suicide in the next 7 days • (8) S-STS Subject-rated global severity of suicidal impulses, thoughts, and behavior • (9) S-STS Subject-rated treatment needed score • (10) MADRS item 10 response rate (response ≤3 units) • (11) MADRS Total response (total score ≥50% reduction from baseline) • (12) MADRS Total remission (total score ≤12 units)
# Subjects who were hospitalized due to an imminent risk of suicide were enrolled according to the inclusion criteria. The trial was initiated in the hospital and all subjects received standard of care (SOC) therapy for the duration of the study. Subjects were released from the hospital (approximately Day 7) once stabilized and continued the study in an outpatient manner. […] Following the conclusion of the treatment period, a 2-week safety follow-up was also conducted to determine maintenance of treatment efficacy and to monitor for any additional safety events. See, FIG. 26.
# [2] = system: adults with major depressive disorder (MDD) who are at imminent risk of suicide; test: S-STS CMCM clinician judgment, risk of suicide at this time; assay type: in vivo, human; conditions: 90 mg IN+SOC; for S-STS CMCM score (range 0-9; risk of suicide at this time, FIGS. 20A-20B): 24 hours post-administration
# From the text: as §1, §2
smiles,measurement,setting,value
"CNC1(c2ccccc2Cl)CCCCC1=O (racemic) [intranasal racemic ketamine, 1:1 mixture of the two enantiomers of ketamine: (R)-2-(2-chlorophenyl)-2-(methylamino)cyclohexanone and (S)-2-(2-chlorophenyl)-2-(methylamino)cyclohexanone]",S-STS CMCM score,"[1]; Subject 1, from 18 units, range 0-52",zero
same,S-STS CMCM score,"[1]; Subject 2, from 22 units",3 units
same,S-STS CMCM mean (SD) change from baseline,"[1]; 17 subjects enrolled, 24 hours post-dose",−20.6 (6.34)
same,S-STS CMCM mean (SD) change from baseline,"[1]; 17 subjects enrolled, Day 16",−20.9 (3.66)
same,S-STS: patients (1 patient) with 4 points within-patient change,[1]; Day 1,6%
same,S-STS: patients with >14 points within-patient change from baseline,[1]; Day 1,94%
same,S-STS mean score,[1]; Day 1,1.7
same,S-STS mean score,[1]; Day 16,0.0
same,S-STS mean score,[1]; Day 29,0.0
same,S-STS CMCM mean (SD) change from baseline,[1]; final follow-up on Day 29/30,−21.1 (3.71)
same,mean S-STS CMCM score,[1]; final follow-up on Day 29/30,0.0 (0.00)
same,"S-STS CMCM score (range 0-9; risk of suicide at this time, FIGS. 20A-20B)","[2]; Subject 1, baseline 7 units",3 units
same,S-STS CMCM score (range 0-9; risk of suicide at this time),"[2]; Subject 1, Day 9",2 units
same,"S-STS CMCM score (range 0-9; risk of suicide at this time, FIGS. 20A-20B)","[2]; Subject 2, from 7 units",3 units
same,S-STS CMCM score (range 0-9; risk of suicide at this time),"[2]; Subject 2, Day 9",zero
same,S-STS CMCM score (range 0-9; risk of suicide at this time),"[2]; Subjects 1 and 2, Day 8",2 units
